Several values for one entry are separate records, joined by “and”; a condition that tells them apart may be missing. Identical values can stand only once. Like-named read-outs stand apart in the source and are kept apart here.
Experiments:
[1] = system: SW480 Human colorectal carcinoma cells; assay: Kras mutant xenograft model of human colorectal cancer (SW480), single agent therapy; settings: SW480 xenograft mice, Day 22
[2] = system: Calu-6 Human Lung Carcinoma cells; settings: Calu-6 xenograft mice; for % T/C / % TGI: day 20; for Observed cures: day 57
[3] = system: Calu-6 Human Lung Carcinoma cells; assay: Calu 6 Kras mutant xenografts that failed C225 (Erbitux) therapy; settings: 40 mg/kg q2dx5 after C-225 challenge, Calu-6 xenograft mice
[4] = system: SW480 Human colorectal carcinoma cells; assay: SW480 human colorectal xenografts, Erbitux failed tumors; settings: 40 mg/kg q2dx7 after C-225 challenge; SW480 xenograft mice; Day 22
[5] = system: MiaPaCA-2 pancreatic cells; assay: Kras mutant pancreatic cancer xenograft model (MiaPaCa-2); format: in vivo, human; settings: MiaPaCa-2 xenograft mice

## CCc1c2c(nc3ccc(OC(=O)N4CCC(N5CCCCC5)CC4)cc13)-c1cc3c(c(=O)n1C2)COC(=O)[C@]3(O)CC [CPT-11, Irinotecan]
[1]; 40 mg/kg q2dx5
  % TGI: 65% and 64.76%
  Percent Change in TV: 163.62%
[1]; 80 mg/kg qdx1
  % T/C: 66.60%
  % TGI: 47% and 46.53%
  Percent Change in TV: 397.75%
[2]; 40 mg/kg q2dx5
  % T/C: 5%
  % TGI: 95%
  Observed cures: 0/8
[2]; 40 mg/kg q2d×5
  day by which animals relapsed: 40 to 45 days
[2]; 80 mg/kg qdx1
  % T/C: 48%
  % TGI: 52%
  Observed cures: 0/8
[2]; 80 mg/kg qd×1
  day by which all animals had to be sacrificed due to excessive tumor burden: 22 to 24 days
[3]; day 20
  % TGI: 84%
[3]; day 57
  Observed cures: 0/8
[4]
  % TGI: 65.38%
  Percent Change in TV: 219.31%
[5]; CPT-11 at corresponding dose level as compound 9 (10 mg/kg, q2d×5)
  TGI: 20%
[5]; multiple-dose at MTD of CPT-11 (40 mg/kg q2d×5)
  TGI: 47%
[5]; single dose at the MTD (80 mg/kg qd×1)
  effect on tumor growth: no effect on tumor growth
